Literature values as cited in PMC11839890 (European Journal of Nuclear Medicine and Molecular Imaging, 2024).

Legend:
A431-CCK2R cells = conditions: cited from earlier work
A431-CCK2R xenografts = conditions: in vivo; cited from earlier work

[^177Lu]Lu-DOTA-PP-F11N: 177Lu-labelled DOTA-(DGlu)6-Ala-Tyr-Gly-Trp-Nle-Asp-Phe-NH2 (AYGW; 177Lu-DOTA-(DGlu)6, Nle-Asp-Phe-NH2; printed: Ala-Tyr-Gly-Trp-)
Bmax (A431-CCK2R cells; A431-CCK2R cells, nM printed only with the first value of the sentence): 0.54 ± 0.10 nM
Kd (A431-CCK2R cells; same cell line (A431-CCK2R), nM printed only with the PP-F11N value): 50 ± 7.3 nM
tumour uptake (A431-CCK2R xenografts): ~ 7 %ID/g
